Test results: PMC11954736 (BioImpacts : BI, 2024)

How the values were obtained:
[1] = system: MCF7; experiment: Cell viability assay; format: cell-based, human; settings: MTT, 48 h exposure; LD50: concentration that causes 50% of cell viability
[2] = system: PC12 cells; experiment: Cell viability assay; format: cell-based, rat; settings: MTT, 48 h exposure, studied concentrations
[3] = system: B16; experiment: Cell viability assay; format: cell-based, murine; settings: MTT, 48 h exposure; LD50: concentration that causes 50% of cell viability
[4] = system: TNFα; experiment: Western blot of TNFα in rat hippocampal tissue; format: in vivo, Wistar rats; settings: Aβ induced AD rats, oral, 21 days
[5] = system: Aβ-induced memory impairment in Wistar rats; experiment: Morris water maze; format: in vivo; settings: Aβ induced AD rats, oral, 21 days; 3rd and fourth training days
[6] = system: NF-κB; experiment: Western blot of NF-κB in rat hippocampal tissue; format: in vivo, Wistar rats; settings: Aβ induced AD rats, oral, 21 days

SMILES	MCF7 (LD50 µM) [1] [µM]	PC12 (LD50 µM) [2]	PC12 (LD50 µM) ([2]; listed as galantamine)	B16 (LD50 µM) [3] [µM]	TNFα level in hippocamp tissue (western blot) [4]	Escape latency time, MWM [5]	NF-κB level in hippocamp tissue (western blot) [6]
COc1ccc2c3c1O[C@H]1C[C@@H](O)C=C[C@@]31CCN(C)C2 [Galantamine]	31.19	No growth inhibition*	no significant effect	34.09	–	–	–
COc1cc2c(cc1OC)C(=O)C(CC1CCN(Cc3ccccc3)CC1)C2 (stereo not shown) [Donepezil]	–	–	–	–	Downregulation	significantly decreased	Downregulation
